system: PMA-differentiated THP-1 cells; assay: IL-1β production in PMA-differentiated THP-1 cells stimulated with gramicidin (hTHP-1 assay containing 2% fetal bovine serum; Procedures 1 and 2); format: cell-based, human; conditions: Homo sapiens, THP-1, Table B3; hTHP-1 assay, 2% fetal bovine serum; class symbols; read-out: IC50
Summary of the method: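 PMA 20 ng/ml 16-18 h → trypsinise → 50,000 cells/well, RPMI/2% FBS; cpd 1 h (11-pt, 100–0.0017 μM; DMSO 0.37%); gramicidin 5 μM, 2 h; spin; supernatant IL-1β via HTRF.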

Structure (SMILES) | IC50 [nM]
Cc1c(C(F)(F)F)nc2c(c1NC(=O)N=S(N)(=O)c1nn(C(F)F)cc1F)CCC2 (stereo not shown) [Example 561, 1-(Difluoromethyl)-4-fluoro-N′-((3-methyl-2-(trifluoromethyl)-6,7-dihydro-5H-cyclopenta[b]pyridin-4-yl)carbamoyl)-1H-pyrazole-3-sulfonimidamide] | 200 to 1000
CO[C@H]1COc2c(S(N)(=O)=NC(=O)Nc3c(C)c(C(F)(F)F)nc4c3CCC4)cnn2C1 (stereo partly drawn) [Example 564, (6R)-6-methoxy-N′-((3-methyl-2-(trifluoromethyl)-6,7-dihydro-5H-cyclopenta[b]pyridin-4-yl)carbamoyl)-6,7-dihydro-5H-pymzolo[5,1-b][1,3]oxazine-3-sulfonimidamide] | 1000 to 5000
Cc1c(C(F)(F)F)nc2c(c1NC(=O)N=S(N)(=O)c1cnn3c1OCCC3)CCC2 (stereo not shown) [Example 565, N′-((3-methyl-2-(trifluoromethyl)-6,7-dihydro-5H-cyclopenta [b]pyridin-4-yl)carbamoyl)-6,7-dihydro-5H-pyrazolo[5,1-b][1,3]oxazine-3-sulfonimidamide] | 5000 to 30000
Cc1nc2c(c(NC(=O)N=S(N)(=O)c3cc(C(C)(C)O)cs3)c1C(F)(F)F)CCC2 (stereo not shown) [Example 566, 4-(2-Hydroxypropan-2-yl)-N′-((2-methyl-3-(trifluoromethyl)-6,7-dihydro-5H-cyclopenta[b]pyridin-4-yl)carbamoyl)thiophene-2-sulfonimidamide] | 200 to 1000
CC(C)(O)c1csc(S(N)(=O)=NC(=O)Nc2cc(C(F)(F)F)nc3c2CCC3)c1 (stereo not shown) [Example 567, 4-(2-Hydroxypropan-2-yl)-N′-((2-(trifluoromethyl)-6,7-dihydro-5H-cyclopenta[b]pyridin-4-yl)carbamoyl)thiophene-2-sulfonimidamide] | 5000 to 30000
C[C@@H]1CCc2c1nc1c(c2NC(=O)N=S(N)(=O)c2nn(C(F)F)cc2F)CCC1 (stereo partly drawn) [Example 568, 1-(Difluoromethyl)-4-fluoro-N′-(((R)-3-methyl-1,2,3,5,6,7-hexahydrodicyclopenta[b,e]pyridin-8-yl)carbamoyl)-1H-pyrazole-3-sulfonimidamide] | 40 to 200
NS(=O)(=NC(=O)Nc1c2c(nc3c1CCC31CC1)CCC2)c1nn(C(F)F)cc1F (stereo not shown) [Example 569, 1-(Difluoromethyl)-4-fluoro-N′-((1′,5′,6′,7′-tetrahydro-2′H-spiro[cyclopropane-1,3′-dicyclopenta[b,e]pyridin]-8′-yl)carbamoyl)-1H-pyrazole-3-sulfonimidamide] | 200 to 1000
CC(C)(O)c1cc(F)c(S(N)(=O)=NC(=O)Nc2c3c(nc(C4CC4)c2C2CC2)CCC3)s1 (stereo not shown) [Example 570, N′-((2,3-dicyclopropyl-6,7-dihydro-5H-cyclopenta[b]pyridin-4-yl)calbamoyl)-3-fluoro-5-(2-hydroxypropan-2-yl)thiophene-2-sulfonimidamide] | 200 to 1000
NS(=O)(=NC(=O)Nc1c2c(nc(C3CC3)c1C1CC1)CCC2)c1ccn(C(F)F)n1 (stereo not shown) [Example 571, N′-((2,3-dicyclopropyl-6,7-dihydro-5H-cyclopenta[b]pyridin-4-yl)calbamoyl)-1-(difluoromethyl)-1H-pymzole-3-sulfonimidamide] | 1000 to 5000
CCc1c(C(F)(F)F)nc2c(c1NC(=O)N=S(N)(=O)c1nn(C(F)F)cc1F)CCC2 (stereo not shown) [Example 572, 1-(Difluoromethyl)-N′-((3-ethyl-2-(trifluoromethyl)-6,7-dihydro-5H-cyclopenta[b]pyridin-4-yl)calbamoyl)-4-fluoro-1H-pyrazole-3-sulfonimidamide] | 1000 to 5000
C[C@@H]1CCc2c1nc1c(c2NC(=O)N=[S@@](N)(=O)c2ccn(CF)n2)CCC1 [Example 573, (R)-1-(fluoromethyl)-N′—(((R)-3-methyl-1,2,3,5,6,7-hexahydrodicyclopenta[b,e]pyridin-8-yl)carbamoyl)-1H-pyrazole-3-sulfonimidamide] | 1000 to 5000
Cc1c(C(F)(F)F)nc2c(c1NC(=O)N=[S@@](N)(=O)c1cnc(C(C)(C)O)s1)C(C)CC2 (stereo partly drawn) [Example 575, (R)-N′-((3,5-dimethyl-2-(trifluoromethyl)-6,7-dihydro-5H-cyclopenta[b]pyridin-4-yl)carbamoyl)-2-(2-hydroxypropan-2-yl)thiazole-5-sulfonimidamide] | 1000 to 5000
Cc1c(C(F)(F)F)nc2c(c1NC(=O)N=[S@@](N)(=O)c1cnc(C(C)(C)O)s1)CC(C)C2 (stereo partly drawn) [Example 576, (R)-N′-((3,6-dimethyl-2-(trifluoromethyl)-6,7-dihydro-5H-cyclopenta[b]pyridin-4-yl)carbamoyl)-2-(2-hydroxypropan-2-yl)thiazole-5-sulfonimidamide] | 200 to 1000
CC(C)(O)c1ncc([S@](N)(=O)=NC(=O)Nc2c3c(nc(C(F)(F)F)c2C2CC2)CCC3)s1 [Example 577, (R)—N′-((3-cyclopropyl-2-(trifluoromethyl)-6,7-dihydro-5H-cyclopenta[b]pyridin-4-yl)carbamoyl)-2-(2-hydroxypropan-2-yl)thiazole-5-sulfonimidamide] | 1000 to 5000
CC(C)(O)c1ncc([S@](N)(=O)=NC(=O)Nc2c3c(nc(CC(F)(F)F)c2C2CC2)CCC3)s1 [Example 578, (R)-N′-((3-cyclopropyl-2-(2,2,2-trifluoroethyl)-6,7-dihydro-5H-cyclopenta[b]pyridin-4-yl)carbamoyl)-2-(2-hydroxypropan-2-yl)thiazole-5-sulfonimidamide] | 1000 to 5000
Cc1c(C2(F)CC2)nc2c(c1NC(=O)N=[S@@](N)(=O)c1cnc(C(C)(C)O)s1)CCC2 [Example 579, (R)-N′-((2-(1-fluorocyclopropyl)-3-methyl-6,7-dihydro-5H-cyclopenta[b]pyridin-4-yl)carbamoyl)-2-(2-hydroxypropan-2-yl)thiazole-5-sulfonimidamide] | 1000 to 5000
CN[C@H]1COc2c(S(N)(=O)=NC(=O)Nc3c(C)c(C(F)(F)F)nc4c3CCC4)cnn2C1 (stereo partly drawn) [Example 580, (6R)-N′-((3-methyl-2-(trifluoromethyl)-6,7-dihydro-5H-cyclopenta[b]pyridin-4-yl)carbamoyl)-6-(methylamino)-6,7-dihydro-5H-pyrazolo[5,1-b][1,3]oxazine-3-sulfonimidamide] | 1000 to 5000
CC(O)c1csc([S@](N)(=O)=NC(=O)Nc2c3c(nc4c2CC[C@H]4C)CCC3)c1 (stereo partly drawn) [Example 582, (R)-4-(1-hydroxyethyl)-N′-(((R)-3-methyl-1,2,3,5,6,7-hexahydrodicyclopenta[b,e]pyridin-8-yl)carbamoyl)thiophene-2-sulfonimidamide] | 40 to 200
Cc1c(C(F)(F)F)nc2c(c1NC(=O)N=S(N)(=O)c1cc(CO)n(C(C)C)n1)CCC2 (stereo not shown) [Example 585, 5-(Hydroxymethyl)-1-isopropyl-N′-((3-methyl-2-(trifluoromethyl)-6,7-dihydro-5H-cyclopenta[b]pyridin-4-yl)carbamoyl)-1H-pyrazole-3-sulfonimidamide] | 1000 to 5000
Cc1nc2c(c(NC(=O)N=S(N)(=O)c3sc(C(O)(CO)CO)nc3CO)c1C(F)(F)F)CCC2 (stereo not shown) [Example 587, 4-(Hydroxymethyl)-N′-((2-methyl-3-(trifluoromethyl)-6,7-dihydro-5H-cyclopenta[b]pyridin-4-yl)calbamoyl)-2-(1,2,3-trihydroxypropan-2-yl)thiazole-5-sulfonimidamide] | 5000 to 30000
CCn1nc(S(N)(=O)=NC(=O)Nc2c(C)c(C(F)(F)F)nc3c2CCC3)cc1CO (stereo not shown) [Example 588, 1-Ethyl-5-(hydroxymethyl)-N′-((3-methyl-2-(trifluoromethyl)-6,7-dihydro-5H-cyclopenta[b]pyridin-4-yl)calbamoyl)-1H-pyrazole-3-sulfonimidamide] | 1000 to 5000
CCn1nc(S(N)(=O)=NC(=O)Nc2c3c(nc4c2CCC42CC2)CCC3)cc1CO (stereo not shown) [Example 589, 1-Ethyl-5-(hydroxymethyl)-N′-((1′,5′,6′,7′-tetrahydro-2′H-spiro[cyclopropane-1,3′-dicyclopenta[b,e]pyridin]-8′-yl)carbamoyl)-1H-pyrazole-3-sulfonimidamide] | 1000 to 5000
CCn1nc(S(N)(=O)=NC(=O)Nc2c3c(nc4c2CC[C@H]4C)CCC3)cc1CO (stereo partly drawn) [Example 590, 1-Ethyl-5-(hydroxymethyl)-N′-(((R)-3-methyl-1,2,3,5,6,7-hexahydrodicyclopenta[b,e]pyridin-8-yl)carbamoyl)-1H-pyrazole-3-sulfonimidamide] | 1000 to 5000
CCn1nc(S(N)(=O)=NC(=O)Nc2c3c(nc4c2CCC4(C)C)CCC3)cc1CO (stereo not shown) [Example 591, N′-((3,3-dimethyl-1,2,3,5,6,7-hexahydrodicyclopenta[b,e]pyridin-8-yl)carbamoyl)-1-ethyl-5-(hydroxymethyl)-1H-pyrazole-3-sulfonimidamide] | 1000 to 5000
CCc1c(CC(F)(F)F)nc2c(c1NC(=O)N=S(N)(=O)c1sc(C(C)(C)O)cc1F)CCC2 (stereo not shown) [Example 594, N′-((3-ethyl-2-(2,2,2-trifluoroethyl)-6,7-dihydro-5H-cyclopenta[b]pyridin-4-yl)carbamoyl)-3-fluoro-5-(2-hydroxypropan-2-yl)thiophene-2-sulfonimidamide] | 1000 to 5000
CC(C)n1nc(S(N)(=O)=NC(=O)Nc2c3c(nc4c2CCC42CC2)CCC3)cc1CO (stereo not shown) [Example 595, 5-(Hydroxymethyl)-1-isopropyl-N′-((1′,5′,6′,7′-tetrahydro-2′H-spiro[cyclopropane-1,3′-dicyclopenta[b,e]pyridin]-8′-yl)carbamoyl)-1H-pyrazole-3-sulfonimidamide] | 1000 to 5000

same assay, conditions: Homo sapiens, THP-1, Table B3; hTHP-1 assay, 2% fetal bovine serum; numeric values; read-out: IC50

Structure (SMILES) | IC50 [nM]
Cc1nc2c(c(NC(=O)N=[S@@](N)(=O)c3cnc(C(C)(C)O)s3)c1C1CC1)CCC2 [Example 581, (R)-N′-((3-cyclopropyl-2-methyl-6,7-dihydro-5H-cyclopenta[b]pyridin-4-yl)carbamoyl)-2-(2-hydroxypropan-2-yl)thiazole-5-sulfonimidamide] | > 30000
CC1(C)CCc2c1nc1c(c2NC(=O)NS(=N)(=O)c2cnc([C@@](C)(O)COCCOCCOCCOCCO)s2)CCC1 (stereo partly drawn) [Example 584, 2-((S)-1,14-dihydroxy-3,6,9,12-tetraoxapentadecan-14-yl)-N-((3,3-dimethyl-1,2,3,5,6,7-hexahydrodicyclopenta[b,e]pyridin-8-yl)carbamoyl)thiazole-5-sulfonimidamide] | > 30000

— patent US20230031406A1, “COMPOUNDS AND COMPOSITIONS FOR TREATING CONDITIONS ASSOCIATED WITH NLRP ACTIVITY” (Novartis AG, priority 2018, published 2023)
